According to patent US20250129103A1, “METHODS FOR TREATMENT OF CANCER” (Frontier Medicines Corporation, priority 2022, published 2025):
≈ marks a conversion by molar mass, not a printed value.

Assays:
[1] = molecular target: KRAS G12C (GMPPNP-loaded) and cRAF (Ras-binding domain) interaction (Homo sapiens (Human), UniProt P01116, C118S/C51S/C80L/G12C); assay: Inhibition of KRAS G12C and cRAF binding (AlphaScreen); conditions: KRAS G12C loaded with GMPPNP, cRaf RBD, 2 hours preincubation; read-out: Raf-1 RBD K-Ras IC50
In short: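 GMPPNP-loaded KRAS G12C in 25 mM Hepes pH 7.4, 150 mM NaCl, 5 mM MgCl2, 0.01% Triton X-100, 10 μM GMPPNP, 2% DMSO, preincubated with compound 2 h at room temperature. cRAF RBD plus AlphaScreen beads then added for 60-90 min; signal read at 570 nm.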

[2] = molecular target: KRAS G12C (GMPPNP-loaded) and PI3Ka (Ras-binding domain) interaction (Homo sapiens (Human), UniProt P01116, C118S/C51S/C80L/G12C); assay: Inhibition of KRAS G12C and PI3Ka binding (AlphaScreen); conditions: KRAS G12C loaded with GMPPNP, PI3Ka RBD, 2 hours preincubation; read-out: PI3K RBD K-Ras IC50
Description: The AlphaScreen technology was used to determine IC50S for compound inhibition of KRAS G12C (present as the Cys-light (C51S, C80L and C118S), truncated version comprising amino acids 1-169) and PI3Ka interaction. Compounds were diluted in 100% DMSO and each compound concentration was spotted at 200 nl/well onto low volume, white 384 well plates. The KRAS G12C contained a biotin-AviTag and the PI3Ka, as Ras-binding domain (amino acids 157-300, RBD), was His-tagged. KRAS G12C was preloaded with the GTP analogue Guanosine 5′-[β,γ-imido]triphosphate (GMPPNP). The KRAS G12C was diluted in 25 mM Hepes, pH 7.4, 150 mM NaCl, 5 mM MgCl2, 0.01% TritonX-100 and 10 μM GMPPNP and added at 10 ul/well to compound-spotted plates resulting in a DMSO concentration of 2%. Plates were incubated for 2 hours. A mixture of RBD and the AlphaScreen streptavidin donor and nickel chelate acceptor beads diluted in 25 mM Hepes, pH 7.4, 150 mM NaCl, 5 mM MgCl2, 0.01% TritonX-100 and 2% DMSO was then added at 10 ul/well and incubated for 60-90 minutes before the samples were read for emission at 570 nm after excitation of the donor beads at 680 nm. All incubations were performed at room temperature. The final top compound concentration was 50 μM with 1:3 titrations for 10-point dose response curves. Final assay conditions were 1.5 nM KRAS G12C, 100 nM RBD, 1.25 ug/ml of AlphaScreen donor beads and 10 μg/ml AlphaLISA acceptor beads. IC50s were determined using nonlinear regression fit of [inhibitor] vs. response (4 parameters). […]

[3] = Determination of logD (1-octanol / phosphate buffer pH 7.4); type: physicochemical; conditions: for logD: 1-octanol/phosphate buffer, pH 7.4, pH 7.4, 1-octanol/phosphate buffer, read-out: Log D, pH 7.4
In short: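 Shake-flask partition between 1-octanol and 100 mM phosphate buffer pH 7.4, each phase presaturated with the other overnight. Tubes shaken 1 h at 800 rpm, room temperature, then centrifuged. Both phases quantified by LCMS and logD calculated from the ratio.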

[4] = Determination of kinetic solubility (pH 7.4); type: physicochemical; conditions: phosphate buffer, pH 7.4, aqueous buffer, kinetic from dmso stock, 50 mM phosphate buffer pH 7.4, read-out: Ksol, pH 7.4
In short: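 Sample mixed with 50 mM phosphate buffer, pH 7.4, vortexed, then shaken 2 h at room temperature and centrifuged. Filtrate analysed by HPLC-UV and LC-MS/MS, with solubility read from peak areas against a standard calibration curve.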

Compound	IC50 [1] [µM]	IC50 [2] [µM]	logD [3]	solubility kinetic at 2 h [4] [µg/mL]	Log D, pH 7.4 ([3]; pH 7.4, 1-octanol/phosphate buffer)
Cc1nccc(/C=C/C(=O)N2CCN(c3nc(OC[C@@]45CCCN4C[C@H](F)C5)nc4c3CCN(c3cccc5cccc(Cl)c35)C4)C[C@@H]2CC#N)n1 [Compound 123]	< 0.01	< 0.01	4.46	0.01 (≈ 0.0138 µM)	–
Cc1nsc(/C=C/C(=O)N2CCN(c3nc(OCC45CCCN4CCC5)nc4c3CCN(c3cccc5cccc(Cl)c35)C4)C[C@@H]2CC#N)n1 [Example 9, (S,E)-2-(4-(7-(8-chloronaphthalen-1-yl)-2-((hexahydro-1H-pyrrolizin-7a-yl)methoxy)-5,6,7,8-tetrahydropyrido[3,4-d]pyrimidin-4-yl)-1-(3-(3-methyl-1,2,4-thiadiazol-5-yl)acryloyl)piperazin-2-yl)acetonitrile]	< 0.01	< 0.01	3.55	67 (≈ 94.4 µM)	–
C[C@@H]1CN(C/C=C/C(=O)N2CCN(c3nc(OC[C@@]45CCCN4C[C@H](F)C5)nc4c(F)c(-c5cccc6cccc(Cl)c56)ncc34)C[C@@H]2CC#N)C[C@@H](C)O1 [Compound 187]	< 0.01	< 0.01	3.61	84 (≈ 109 µM)	–
N#CC[C@H]1CN(c2nc(OC[C@@]34CCCN3C[C@H](F)C4)nc3c(F)c(-c4cccc5cccc(Cl)c45)ncc23)CCN1C(=O)/C=C/CN1CC[C@H](F)C1 [Compound 95, 2-((S)-4-(7-(8-chloronaphthalen-1-yl)-8-fluoro-2-(((2R,7aS)-2-fluorohexahydro-1H-pyrrolizin-7a-yl)methoxy)pyrido[4,3-d]pyrimidin-4-yl)-1-((E)-4-((S)-3-fluoropyrrolidin-1-yl)but-2-enoyl)piperazin-2-yl)acetonitrile]	< 0.01	< 0.01	1.63	73.6 (≈ 98.7 µM)	–
CC(C)(C)c1noc(/C=C/C(=O)N2CCN(c3nc(OC[C@@]45CCCN4C[C@H](F)C5)nc4c3CCN(c3cccc5cccc(Cl)c35)C4)C[C@@H]2CC#N)n1 [Compound 31]	0.01 to 0.1	0.01 to 0.1	4.35	0.01 (≈ 0.0133 µM)	–
N#CC[C@H]1CN(c2nc(OC[C@@]34CCCN3C[C@H](F)C4)nc3c(F)c(-c4cccc5ccc(F)c(F)c45)ncc23)CCN1C(=O)/C=C/CN1C[C@H]2C[C@@H]1CO2 [Compound 218]	< 0.01	< 0.01	2.54	56.4 (≈ 74.6 µM)	–
2-((S)-4-(7-(8-chloro-7-fluoronaphthalen-1-yl)-8-fluoro-2-(((2R,7aS)-2-fluorotetrahydro-1H-pyrrolizin-7a(5H)-yl)methoxy)pyrido[4,3-d]pyrimidin-4-yl)-1-((E)-4-((3aR,6aS)-tetrahydro-1H-furo[3,4-c]pyrrol-5(3H)-yl)but-2-enoyl)piperazin-2-yl)acetonitrile [Example 84]	< 0.01	< 0.01	–	–	2.97
Cc1noc(/C=C/C(=O)N2CCN(c3nc(OC[C@@]45CCCN4C[C@H](F)C5)nc4c3CCN(c3cccc5cccc(Cl)c35)C4)C[C@@H]2CC#N)n1 [Compound 2, 2-((S)-4-(7-(8-chloronaphthalen-1-yl)-2-(((2R,7aS)-2-fluorohexahydro-1H-pyrrolizin-7a-yl)methoxy)-5,6,7,8-tetrahydropyrido[3,4-d]pyrimidin-4-yl)-1-((E)-3-(3-methyl-1,2,4-oxadiazol-5-yl)acryloyl)piperazin-2-yl)acetonitrile]	0.01 to 0.1	< 0.01	4.42	–	–
Cc1cc(N)nc(C2Cc3nc(OC[C@@]45CCCN4C[C@H](F)C5)nc(N4CCN(C(=O)/C=C/C5CCN5C)[C@@H](CC#N)C4)c3CC2C)c1C(F)(F)F (mixture of isomers) [Example 68, 2-((2S)-4-(7-(6-amino-4-methyl-3-(trifluoromethyl)pyridin-2-yl)-2-(((2R,7aS)-2-fluorohexahydro-1H-pyrrolizin-7a-yl)methoxy)-6-methyl-5,6,7,8-tetrahydroquinazolin-4-yl)-1-((E)-3-(1-methylazetidin-2-yl)acryloyl)piperazin-2-yl)acetonitrile]	< 0.01	< 0.01	3.09	–	–
